The values below come from PubChem BioAssay (NCI).

Test systems include DU-145 prostate; SK-OV-3 ovarian; 786-0 renal; HCC-2998 colon; IGROV1 ovarian; SF-268 CNS; HS 578T breast; SR leukemia; ACHN renal; RPMI-8226 leukemia.
Common to all, as to assay: DTP human tumour cell line panel, 48 h

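Results reflect a 48-hour exposure of cells in 96-well plates to compound at five concentrations. Here, GI50 denotes the concentration required for 50% inhibition of growth. TGI denotes the concentration required for complete inhibition of growth.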

Turning to `COC(=O)C12CC(NC(=O)c3csc([C@@H](C[C@H](C(C)C)N(C)C(=O)[C@@H](NC(=O)[C@H]4CCCCN4C)C4CC4)OC(C)=O)n3)(C1)C2`, the GI50 (in general, the concentration giving 50% growth inhibition) is 0.0154 µM with DU-145 prostate; 0.0735 µM with SK-OV-3 ovarian; 0.0394 µM with 786-0 renal; 0.0851 µM with HCC-2998 colon; 0.0126 µM in the assay on IGROV1 ovarian; 0.023 µM in the assay on SF-268 CNS. The GI50 in the assay with HS 578T breast is 0.0169 µM; in the assay with SR leukemia it was 0.00193 µM; with ACHN renal it was 0.123 µM; in the assay on RPMI-8226 leukemia it was 0.00674 µM. The TGI with DU-145 prostate, with SK-OV-3 ovarian, in the assay on 786-0 renal, in the assay with HCC-2998 colon, in the assay with IGROV1 ovarian and in the assay on SF-268 CNS was greater than 16.7 µM each time. Moreover, the TGI in the assay with HS 578T breast, with SR leukemia, with ACHN renal and in the assay on RPMI-8226 leukemia was greater than 16.7 µM in each case.
Regarding `Cc1ccc2nc(-c3ccc(OCC(=O)N=Nc4c(O)[nH]c5ccccc45)cc3)[nH]c2c1`, the GI50 in the assay with DU-145 prostate is 3.29 µM; with SK-OV-3 ovarian, 17.5 µM; in the assay with 786-0 renal, 2.06 µM; in the assay with HCC-2998 colon it was 4.1 µM; with IGROV1 ovarian it was 3.61 µM; with SF-268 CNS, 3.54 µM. In addition, the GI50 in the assay on HS 578T breast was 11.4 µM; in the assay on SR leukemia it was 0.499 µM; in the assay with ACHN renal, 7.37 µM; in the assay on RPMI-8226 leukemia it was 3.44 µM. The TGI (as a rule, the concentration giving total growth inhibition) with DU-145 prostate turned out to be 13.5 µM; in the assay on SK-OV-3 ovarian, 37 µM; in the assay on 786-0 renal, 4.38 µM; in the assay with HCC-2998 colon, 20.5 µM; in the assay with IGROV1 ovarian it was 16.1 µM; in the assay on SF-268 CNS, 14.4 µM. Also, the TGI was 42.3 µM in the assay with HS 578T breast, 3.76 µM in the assay with SR leukemia, greater than 100 µM in the assay on ACHN renal and 17.8 µM in the assay on RPMI-8226 leukemia.
As to `O=C(/C=C/c1ccc(C(F)(F)F)cc1)Nc1ccc(C=C2c3ccccc3C(=O)c3ccccc32)cc1`, the GI50 is 30.5 µM in the assay on DU-145 prostate; 12.7 µM with SK-OV-3 ovarian; 13.6 µM with 786-0 renal; 8.71 µM with HCC-2998 colon; 33.2 µM in the assay with IGROV1 ovarian; 14.3 µM in the assay on SF-268 CNS. The GI50 in the assay with HS 578T breast is 13.1 µM; with SR leukemia it was 0.772 µM; in the assay with ACHN renal, 19.4 µM; with RPMI-8226 leukemia, 1.15 µM. Further, the TGI with DU-145 prostate was greater than 100 µM; in the assay with SK-OV-3 ovarian, 86.7 µM; in the assay with 786-0 renal, greater than 100 µM; in the assay with HCC-2998 colon, greater than 100 µM; in the assay with IGROV1 ovarian it was greater than 100 µM; with SF-268 CNS it was greater than 100 µM. In addition, the TGI in the assay on HS 578T breast was greater than 100 µM; with SR leukemia, 41.7 µM; in the assay on ACHN renal it was greater than 100 µM; with RPMI-8226 leukemia, 85.9 µM.
For `CCN(Cc1cc(F)ccc1F)c1ccc(CO)c(Cl)c1`, the GI50 was 15.5 µM in the assay on DU-145 prostate; 8.94 µM with SK-OV-3 ovarian; 11.8 µM in the assay with 786-0 renal; 6.37 µM with HCC-2998 colon; 0.0527 µM in the assay on IGROV1 ovarian; 17.3 µM in the assay on SF-268 CNS. Moreover, the GI50 is 16.2 µM with HS 578T breast, 16.1 µM in the assay on SR leukemia, 14.3 µM in the assay on ACHN renal and 2.24 µM with RPMI-8226 leukemia. In addition, the TGI amounted to 36.7 µM in the assay with DU-145 prostate; 29.1 µM in the assay on SK-OV-3 ovarian; 26.9 µM in the assay with 786-0 renal; 21.7 µM with HCC-2998 colon; 0.279 µM in the assay with IGROV1 ovarian; 40.6 µM in the assay with SF-268 CNS. In addition, the TGI amounted to 47.4 µM in the assay on HS 578T breast, 44.3 µM in the assay with SR leukemia, 29.6 µM in the assay with ACHN renal and 30.3 µM in the assay with RPMI-8226 leukemia.
With `CC(C)c1nc(N(C)S(C)(=O)=O)nc(-c2ccc(F)cc2)c1/C=C/[C@@H](O)C[C@@H](O)CC(=O)O`, the GI50 in the assay on DU-145 prostate was greater than 100 µM; in the assay on SK-OV-3 ovarian, greater than 100 µM; in the assay with 786-0 renal, greater than 100 µM; in the assay on HCC-2998 colon, greater than 100 µM; in the assay with IGROV1 ovarian, greater than 100 µM; with SF-268 CNS, 28.3 µM. For the same compound, the GI50 in the assay on HS 578T breast was 51.9 µM; in the assay on SR leukemia, 32.7 µM; in the assay on ACHN renal, 34.2 µM; in the assay on RPMI-8226 leukemia, greater than 100 µM. Also, the TGI in the assay with DU-145 prostate, with SK-OV-3 ovarian, in the assay on 786-0 renal, with HCC-2998 colon, in the assay with IGROV1 ovarian and in the assay on SF-268 CNS was greater than 100 µM throughout. The TGI in the assay on HS 578T breast, in the assay on SR leukemia, with ACHN renal and in the assay with RPMI-8226 leukemia was greater than 100 µM throughout.
Take `CCN1CCN(Cc2ccc(NC(=O)Nc3nc4ccc(Oc5ccnc(C(=O)NC)c5)cc4s3)cc2C(F)(F)F)CC1`: the GI50 was 1.76 µM in the assay on DU-145 prostate; 1.82 µM with SK-OV-3 ovarian; 1.03 µM in the assay on 786-0 renal; 2.05 µM in the assay on HCC-2998 colon; 1.76 µM in the assay with IGROV1 ovarian; 2 µM with SF-268 CNS. The GI50 with HS 578T breast is 2.01 µM; in the assay with SR leukemia, 0.281 µM; with ACHN renal it was 1.39 µM; with RPMI-8226 leukemia it was 2.1 µM. Further, the TGI in the assay on DU-145 prostate came out at 3.62 µM; in the assay on SK-OV-3 ovarian it was 3.36 µM; in the assay on 786-0 renal, 2.36 µM; in the assay on HCC-2998 colon, 3.67 µM; in the assay on IGROV1 ovarian it was 3.62 µM; with SF-268 CNS it was 4.12 µM. For the same compound, the TGI turned out to be 4.44 µM in the assay on HS 578T breast, 0.846 µM in the assay on SR leukemia, 2.71 µM in the assay on ACHN renal and 5.34 µM in the assay with RPMI-8226 leukemia.
Take `CCOc1ccc(/C(C=O)=C(\Cl)c2ccc(OC)cc2)cc1`: the TGI in the assay on DU-145 prostate, with SK-OV-3 ovarian, with 786-0 renal, with HCC-2998 colon, with IGROV1 ovarian and with SF-268 CNS was greater than 100 µM throughout. For the same compound, the TGI in the assay with HS 578T breast, in the assay on SR leukemia, with ACHN renal and with RPMI-8226 leukemia was greater than 100 µM each time.
Regarding `Cc1cc(C)c2c(n1)sc1c(N)ncnc12`, the GI50 with DU-145 prostate is greater than 25 µM; in the assay on SK-OV-3 ovarian, greater than 25 µM; with 786-0 renal, greater than 25 µM; in the assay with HCC-2998 colon it was greater than 25 µM; in the assay with IGROV1 ovarian, 19.7 µM; in the assay on SF-268 CNS, greater than 25 µM. Moreover, the GI50 with HS 578T breast was 11.4 µM; with SR leukemia it was 9.43 µM; in the assay on ACHN renal it was 14.2 µM; with RPMI-8226 leukemia, greater than 25 µM. Further, the TGI with DU-145 prostate, with SK-OV-3 ovarian, with 786-0 renal, in the assay on HCC-2998 colon, in the assay with IGROV1 ovarian and in the assay on SF-268 CNS was greater than 25 µM each time. In addition, the TGI in the assay with HS 578T breast, in the assay with SR leukemia, in the assay with ACHN renal and in the assay on RPMI-8226 leukemia was greater than 25 µM throughout.
`CCCCCN(CCCCC)CC(O)c1cc(Cl)ccc1OC` (stereo not given): the GI50 in the assay with DU-145 prostate is 10.8 µM; in the assay with SK-OV-3 ovarian, 12.8 µM; in the assay with 786-0 renal it was 13 µM; in the assay with HCC-2998 colon, 5.72 µM; in the assay on IGROV1 ovarian, 3 µM; in the assay with SF-268 CNS, 11.4 µM. Also, the GI50 in the assay with HS 578T breast was 12.9 µM; in the assay on SR leukemia it was 4.78 µM; in the assay with ACHN renal, 10.5 µM; in the assay with RPMI-8226 leukemia it was 4.81 µM. The TGI was found to be 23.5 µM with DU-145 prostate; 29.5 µM in the assay on SK-OV-3 ovarian; 27.4 µM in the assay with 786-0 renal; 17.8 µM with HCC-2998 colon; 15.1 µM with IGROV1 ovarian; 24.4 µM in the assay with SF-268 CNS. For the same compound, the TGI turned out to be 33.6 µM in the assay on HS 578T breast, 30.5 µM with SR leukemia, 24.9 µM in the assay with ACHN renal and 22.7 µM in the assay with RPMI-8226 leukemia.
As for `Cc1ncc(C(=O)Nc2ccc(CN3CCN(C)CC3)c(C(F)(F)F)c2)cc1C#Cc1ccc(N)nc1`, the concentration for 50% growth inhibition (GI50) with DU-145 prostate is 0.186 µM; in the assay on SK-OV-3 ovarian, 0.395 µM; in the assay on 786-0 renal it was 0.733 µM; with HCC-2998 colon, 0.998 µM; with IGROV1 ovarian, 0.118 µM; in the assay with SF-268 CNS it was 0.258 µM. The GI50 in the assay with HS 578T breast was 0.17 µM; with SR leukemia, 0.189 µM; in the assay on ACHN renal, 0.117 µM; in the assay with RPMI-8226 leukemia it was 0.237 µM. Moreover, the TGI in the assay on DU-145 prostate came out at 4.12 µM; in the assay with SK-OV-3 ovarian it was 2.56 µM; in the assay on 786-0 renal, 4.3 µM; in the assay on HCC-2998 colon, 4.66 µM; in the assay with IGROV1 ovarian, 0.751 µM; in the assay on SF-268 CNS, 1.43 µM. For the same compound, the TGI was found to be 0.988 µM in the assay with HS 578T breast, 4.4 µM in the assay with SR leukemia, 0.995 µM in the assay on ACHN renal and 1.58 µM with RPMI-8226 leukemia.
`COc1ccc(Nc2nc3ccccc3c3occc23)cc1`: the GI50 in the assay on DU-145 prostate is 6.65 µM; with SK-OV-3 ovarian, 0.005 µM; with 786-0 renal, 5.02 µM; with HCC-2998 colon, 5 µM; in the assay with IGROV1 ovarian, 37.4 µM; in the assay on SF-268 CNS, 6.55 µM. The GI50 is 7.12 µM with HS 578T breast, 0.663 µM in the assay on SR leukemia, 5.35 µM with ACHN renal and 8.35 µM with RPMI-8226 leukemia. The TGI was 13.1 µM in the assay with DU-145 prostate; 9.95 µM in the assay on SK-OV-3 ovarian; 10.8 µM with 786-0 renal; 11.1 µM in the assay on HCC-2998 colon; greater than 50 µM in the assay with IGROV1 ovarian; 14.4 µM with SF-268 CNS. In addition, the TGI in the assay with HS 578T breast was 16.3 µM; in the assay with SR leukemia, greater than 50 µM; with ACHN renal, 13.7 µM; in the assay with RPMI-8226 leukemia, 22.6 µM.
Take `O=c1cc(-c2ccc(O)cc2)oc2cc(O[C@@H]3O[C@H](CO)[C@@H](O)[C@H](O)[C@H]3O)cc(O)c12`: the TGI in the assay on DU-145 prostate, in the assay with SK-OV-3 ovarian, with 786-0 renal, with HCC-2998 colon, in the assay on IGROV1 ovarian and in the assay with SF-268 CNS was greater than 100 µM throughout. The TGI in the assay on HS 578T breast, with SR leukemia, with ACHN renal and with RPMI-8226 leukemia was greater than 100 µM in each case.
